The values below come from ChEMBL document CHEMBL3132769, “Fragment growing to retain or alter the selectivity of anchored kinase hinge-binding fragments” (Medchemcomm, 2014).

The target in test [1] is Tyrosine-protein kinase ABL1 (Homo sapiens) (UniProt P00519). Description: Inhibition of human full-length ABL expressed in baculovirus assessed as substrate phosphorylation using fluorescence-labelled peptides as substrate at 2 uM after 90 mins by microfluidic peptide phosphorylation assay.
Test [2] deals with T1, Serine/threonine-protein kinase BRSK1 (Homo sapiens) (UniProt Q8TDC3).
T1 sequence (whole entry): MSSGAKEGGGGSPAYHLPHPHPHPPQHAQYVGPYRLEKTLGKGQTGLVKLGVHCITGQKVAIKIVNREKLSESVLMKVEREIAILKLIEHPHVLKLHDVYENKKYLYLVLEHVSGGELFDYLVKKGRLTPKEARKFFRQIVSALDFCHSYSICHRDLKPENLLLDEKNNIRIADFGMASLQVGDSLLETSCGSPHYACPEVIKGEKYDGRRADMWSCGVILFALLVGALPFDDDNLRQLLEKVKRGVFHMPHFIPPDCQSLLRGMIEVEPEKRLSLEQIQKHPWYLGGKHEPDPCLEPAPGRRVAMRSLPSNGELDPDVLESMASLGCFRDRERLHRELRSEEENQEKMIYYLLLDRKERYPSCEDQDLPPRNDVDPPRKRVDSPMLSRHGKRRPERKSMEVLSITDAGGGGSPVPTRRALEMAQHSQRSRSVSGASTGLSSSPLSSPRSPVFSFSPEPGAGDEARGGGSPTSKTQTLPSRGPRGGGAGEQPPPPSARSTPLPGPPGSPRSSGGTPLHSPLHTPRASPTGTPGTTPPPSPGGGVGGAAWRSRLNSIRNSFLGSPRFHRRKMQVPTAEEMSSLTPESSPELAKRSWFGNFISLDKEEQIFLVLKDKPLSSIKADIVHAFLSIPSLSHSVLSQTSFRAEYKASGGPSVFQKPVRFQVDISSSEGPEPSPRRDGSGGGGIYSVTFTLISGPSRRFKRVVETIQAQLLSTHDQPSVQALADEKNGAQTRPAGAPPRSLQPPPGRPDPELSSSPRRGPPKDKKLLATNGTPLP
Kind of test: Inhibition of human full length BRSK1 expressed in baculovirus assessed as substrate phosphorylation using fluorescence-labelled peptides as substrate at 2 uM after 90 mins by microfluidic peptide phosphorylation assay.

Test [3] addresses MAP kinase-activated protein kinase 2 (Homo sapiens) (UniProt P49137). Description: Inhibition of human full length MAPKAPK2 expressed in baculovirus assessed as substrate phosphorylation using fluorescence-labelled peptides as substrate at 2 uM after 90 mins by microfluidic peptide phosphorylation assay.
Test [4] has as its target RAF proto-oncogene serine/threonine-protein kinase (Homo sapiens) (UniProt P04049). Kind of test: Inhibition of human truncated c-Raf expressed in baculovirus assessed as substrate phosphorylation using fluorescence-labelled peptides as substrate at 95 uM after 90 mins by microfluidic peptide phosphorylation assay.
Test [5] deals with Calcium/calmodulin-dependent protein kinase type II subunit delta (Homo sapiens) (UniProt Q13557). Description: Inhibition of human full length CAMK2D expressed in baculovirus assessed as substrate phosphorylation using fluorescence-labelled peptides as substrate at 95 uM after 90 mins by microfluidic peptide phosphorylation assay.
Test [6] concerns the target Serine/threonine-protein kinase MARK1 (Homo sapiens) (UniProt Q9P0L2). Description: Inhibition of human full length MARK1 expressed in baculovirus assessed as substrate phosphorylation using fluorescence-labelled peptides as substrate at […] after 90 mins by microfluidic peptide phosphorylation assay.
Test [7] deals with Tyrosine-protein kinase Lyn (Homo sapiens) (UniProt P07948). Kind of test: Inhibition of human full length LYN expressed in baculovirus assessed as substrate phosphorylation using fluorescence-labelled peptides as substrate at 420 uM after 90 mins by microfluidic peptide phosphorylation assay.
The test system of test [8] is Fibroblast growth factor receptor 2 (Homo sapiens), P21802 [N549H]. Description: Inhibition of human FGFR2 N549H mutant catalytic domain expressed in baculovirus assessed as substrate phosphorylation using fluorescence-labelled peptides as substrate at 1000 uM after 90 mins by microfluidic peptide phosphorylation assay.
Test [9] addresses T2, Serine/threonine-protein kinase D2 (Homo sapiens) (UniProt Q9BZL6).
T2 sequence (whole entry): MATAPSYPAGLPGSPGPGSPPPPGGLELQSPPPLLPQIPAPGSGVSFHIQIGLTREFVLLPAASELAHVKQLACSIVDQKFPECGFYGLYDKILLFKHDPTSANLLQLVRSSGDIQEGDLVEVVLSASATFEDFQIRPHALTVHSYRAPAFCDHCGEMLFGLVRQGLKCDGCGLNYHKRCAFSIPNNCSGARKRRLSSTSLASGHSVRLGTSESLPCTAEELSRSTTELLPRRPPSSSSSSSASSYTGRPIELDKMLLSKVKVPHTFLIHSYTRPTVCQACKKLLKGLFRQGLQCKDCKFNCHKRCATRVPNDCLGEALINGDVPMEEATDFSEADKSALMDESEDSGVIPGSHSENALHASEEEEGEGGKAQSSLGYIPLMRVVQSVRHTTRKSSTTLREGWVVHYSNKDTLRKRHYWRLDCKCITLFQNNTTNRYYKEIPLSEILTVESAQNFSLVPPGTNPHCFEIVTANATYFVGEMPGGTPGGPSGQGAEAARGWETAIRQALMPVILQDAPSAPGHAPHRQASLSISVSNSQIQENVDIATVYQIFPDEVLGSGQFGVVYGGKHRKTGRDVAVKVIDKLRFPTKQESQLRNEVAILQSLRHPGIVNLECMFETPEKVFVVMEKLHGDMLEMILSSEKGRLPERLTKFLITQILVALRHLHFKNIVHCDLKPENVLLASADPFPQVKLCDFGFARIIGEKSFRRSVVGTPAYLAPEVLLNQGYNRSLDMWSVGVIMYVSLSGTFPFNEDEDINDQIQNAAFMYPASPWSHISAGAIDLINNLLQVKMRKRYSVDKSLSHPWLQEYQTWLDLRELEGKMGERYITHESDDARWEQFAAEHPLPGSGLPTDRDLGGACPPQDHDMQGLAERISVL
Kind of test: Inhibition of human full length PKD2 expressed in baculovirus assessed as substrate phosphorylation using fluorescence-labelled peptides as substrate at 1000 uM after 90 mins by microfluidic peptide phosphorylation assay.

Sequence of Tyrosine-protein kinase ABL1 (Homo sapiens) (P00519 whole entry): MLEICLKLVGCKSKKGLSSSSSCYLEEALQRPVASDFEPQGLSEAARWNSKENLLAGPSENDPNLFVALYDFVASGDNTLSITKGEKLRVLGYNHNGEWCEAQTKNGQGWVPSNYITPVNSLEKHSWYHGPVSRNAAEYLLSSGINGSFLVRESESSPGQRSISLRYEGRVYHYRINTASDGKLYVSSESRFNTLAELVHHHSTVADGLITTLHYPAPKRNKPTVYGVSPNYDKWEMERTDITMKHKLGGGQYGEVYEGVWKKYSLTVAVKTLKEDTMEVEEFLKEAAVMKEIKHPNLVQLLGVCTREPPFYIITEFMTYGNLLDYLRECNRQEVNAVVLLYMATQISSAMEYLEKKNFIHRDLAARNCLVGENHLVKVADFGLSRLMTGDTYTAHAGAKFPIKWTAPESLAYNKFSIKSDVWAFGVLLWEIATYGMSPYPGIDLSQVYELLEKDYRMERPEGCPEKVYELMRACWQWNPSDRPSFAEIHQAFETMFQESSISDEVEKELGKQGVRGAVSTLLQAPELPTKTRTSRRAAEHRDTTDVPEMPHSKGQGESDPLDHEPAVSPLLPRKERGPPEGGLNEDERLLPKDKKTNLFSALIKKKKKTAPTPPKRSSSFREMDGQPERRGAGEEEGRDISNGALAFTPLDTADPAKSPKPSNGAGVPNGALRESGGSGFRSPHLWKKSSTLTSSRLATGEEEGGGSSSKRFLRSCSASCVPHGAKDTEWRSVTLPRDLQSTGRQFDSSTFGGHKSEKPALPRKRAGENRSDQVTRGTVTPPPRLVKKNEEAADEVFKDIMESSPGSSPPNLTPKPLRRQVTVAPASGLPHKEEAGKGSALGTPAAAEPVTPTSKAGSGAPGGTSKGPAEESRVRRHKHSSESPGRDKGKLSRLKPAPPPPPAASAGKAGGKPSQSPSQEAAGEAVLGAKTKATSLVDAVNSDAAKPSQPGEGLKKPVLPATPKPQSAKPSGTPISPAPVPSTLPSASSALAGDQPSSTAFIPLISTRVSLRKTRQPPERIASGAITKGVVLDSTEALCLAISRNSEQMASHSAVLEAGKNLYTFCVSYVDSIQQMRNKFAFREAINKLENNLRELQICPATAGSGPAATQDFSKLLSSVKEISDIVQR
Sequence of MAP kinase-activated protein kinase 2 (Homo sapiens) (P49137 whole entry, looked up, the tested form may be a part): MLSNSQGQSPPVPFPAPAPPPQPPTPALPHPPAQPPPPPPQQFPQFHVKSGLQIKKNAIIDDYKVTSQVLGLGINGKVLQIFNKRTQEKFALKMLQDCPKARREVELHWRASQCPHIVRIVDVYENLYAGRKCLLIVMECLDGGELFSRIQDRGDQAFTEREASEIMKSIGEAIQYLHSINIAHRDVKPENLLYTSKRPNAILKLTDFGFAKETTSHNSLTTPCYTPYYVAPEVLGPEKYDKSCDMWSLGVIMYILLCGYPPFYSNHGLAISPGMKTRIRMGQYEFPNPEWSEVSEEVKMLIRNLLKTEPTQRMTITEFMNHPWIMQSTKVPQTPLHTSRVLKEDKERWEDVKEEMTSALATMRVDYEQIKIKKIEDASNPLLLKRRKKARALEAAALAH
Sequence of Calcium/calmodulin-dependent protein kinase type II subunit delta (Homo sapiens) (Q13557 whole entry): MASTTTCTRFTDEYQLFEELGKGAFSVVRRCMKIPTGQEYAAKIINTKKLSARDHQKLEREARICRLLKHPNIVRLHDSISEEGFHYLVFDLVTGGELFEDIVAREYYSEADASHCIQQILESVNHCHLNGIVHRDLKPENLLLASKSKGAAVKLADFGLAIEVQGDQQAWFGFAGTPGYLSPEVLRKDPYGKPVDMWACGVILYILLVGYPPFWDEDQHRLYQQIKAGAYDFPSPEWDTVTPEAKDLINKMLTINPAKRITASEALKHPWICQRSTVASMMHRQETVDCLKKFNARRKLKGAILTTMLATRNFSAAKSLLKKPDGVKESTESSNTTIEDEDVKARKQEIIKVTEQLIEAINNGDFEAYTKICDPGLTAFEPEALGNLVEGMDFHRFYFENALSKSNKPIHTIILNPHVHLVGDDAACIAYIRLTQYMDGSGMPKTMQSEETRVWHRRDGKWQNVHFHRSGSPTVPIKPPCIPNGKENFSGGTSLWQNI
Sequence of Tyrosine-protein kinase Lyn (Homo sapiens) (P07948 2-512 limits assumed): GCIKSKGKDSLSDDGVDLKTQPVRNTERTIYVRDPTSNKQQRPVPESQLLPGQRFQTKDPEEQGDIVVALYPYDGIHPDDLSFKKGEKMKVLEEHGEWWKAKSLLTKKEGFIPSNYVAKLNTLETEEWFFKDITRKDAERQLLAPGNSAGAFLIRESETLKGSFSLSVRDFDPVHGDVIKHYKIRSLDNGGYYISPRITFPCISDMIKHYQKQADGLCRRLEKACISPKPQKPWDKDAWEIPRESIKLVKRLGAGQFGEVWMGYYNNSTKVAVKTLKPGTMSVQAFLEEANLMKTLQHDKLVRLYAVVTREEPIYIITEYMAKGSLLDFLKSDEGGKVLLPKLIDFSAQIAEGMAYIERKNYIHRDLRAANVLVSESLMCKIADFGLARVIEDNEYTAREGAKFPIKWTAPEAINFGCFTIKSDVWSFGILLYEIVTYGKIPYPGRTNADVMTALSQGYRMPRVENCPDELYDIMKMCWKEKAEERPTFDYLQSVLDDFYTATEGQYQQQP
Sequence of RAF proto-oncogene serine/threonine-protein kinase (Homo sapiens) (P04049 whole entry, the tested form may be a part): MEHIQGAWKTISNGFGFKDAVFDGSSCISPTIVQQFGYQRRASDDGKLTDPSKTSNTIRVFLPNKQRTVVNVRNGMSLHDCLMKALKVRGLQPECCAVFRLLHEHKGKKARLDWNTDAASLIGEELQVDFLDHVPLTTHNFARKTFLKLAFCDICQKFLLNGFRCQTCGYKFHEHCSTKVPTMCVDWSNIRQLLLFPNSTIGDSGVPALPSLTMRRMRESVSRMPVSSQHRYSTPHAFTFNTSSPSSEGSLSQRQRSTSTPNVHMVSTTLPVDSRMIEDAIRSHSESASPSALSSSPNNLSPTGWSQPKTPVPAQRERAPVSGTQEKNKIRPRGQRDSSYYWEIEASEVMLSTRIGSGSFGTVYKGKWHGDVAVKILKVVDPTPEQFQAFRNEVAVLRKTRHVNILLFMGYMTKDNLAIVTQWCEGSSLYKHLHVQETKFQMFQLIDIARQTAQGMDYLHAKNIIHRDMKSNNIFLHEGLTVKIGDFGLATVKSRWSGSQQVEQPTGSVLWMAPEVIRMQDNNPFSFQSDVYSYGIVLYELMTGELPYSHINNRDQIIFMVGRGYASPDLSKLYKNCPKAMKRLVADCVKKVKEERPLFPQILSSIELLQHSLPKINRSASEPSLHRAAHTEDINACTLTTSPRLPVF
Sequence of Fibroblast growth factor receptor 2 (Homo sapiens), P21802 [N549H] (P21802 whole entry N549H, the tested form may be a part): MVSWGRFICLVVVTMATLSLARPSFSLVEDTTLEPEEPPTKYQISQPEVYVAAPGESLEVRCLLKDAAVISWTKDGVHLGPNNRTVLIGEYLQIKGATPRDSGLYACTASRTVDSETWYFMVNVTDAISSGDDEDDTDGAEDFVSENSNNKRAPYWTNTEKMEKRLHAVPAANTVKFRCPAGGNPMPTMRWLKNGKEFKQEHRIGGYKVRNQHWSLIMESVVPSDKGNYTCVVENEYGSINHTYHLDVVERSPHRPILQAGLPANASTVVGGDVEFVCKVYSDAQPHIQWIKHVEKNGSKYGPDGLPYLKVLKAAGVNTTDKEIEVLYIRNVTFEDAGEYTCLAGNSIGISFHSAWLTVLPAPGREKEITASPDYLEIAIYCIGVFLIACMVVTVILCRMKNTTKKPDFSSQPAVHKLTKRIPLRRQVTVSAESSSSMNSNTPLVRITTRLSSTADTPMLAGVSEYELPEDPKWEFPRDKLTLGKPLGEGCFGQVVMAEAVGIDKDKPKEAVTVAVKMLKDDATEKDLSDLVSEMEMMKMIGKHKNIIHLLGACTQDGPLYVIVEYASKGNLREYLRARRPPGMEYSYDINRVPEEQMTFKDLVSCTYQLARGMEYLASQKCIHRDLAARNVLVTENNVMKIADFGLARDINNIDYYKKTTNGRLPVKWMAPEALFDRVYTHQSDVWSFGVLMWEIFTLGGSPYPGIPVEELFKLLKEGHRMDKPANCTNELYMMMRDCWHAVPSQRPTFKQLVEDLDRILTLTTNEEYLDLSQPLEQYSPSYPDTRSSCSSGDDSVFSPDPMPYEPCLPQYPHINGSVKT
Sequence of Serine/threonine-protein kinase MARK1 (Homo sapiens) (Q9P0L2 whole entry, looked up): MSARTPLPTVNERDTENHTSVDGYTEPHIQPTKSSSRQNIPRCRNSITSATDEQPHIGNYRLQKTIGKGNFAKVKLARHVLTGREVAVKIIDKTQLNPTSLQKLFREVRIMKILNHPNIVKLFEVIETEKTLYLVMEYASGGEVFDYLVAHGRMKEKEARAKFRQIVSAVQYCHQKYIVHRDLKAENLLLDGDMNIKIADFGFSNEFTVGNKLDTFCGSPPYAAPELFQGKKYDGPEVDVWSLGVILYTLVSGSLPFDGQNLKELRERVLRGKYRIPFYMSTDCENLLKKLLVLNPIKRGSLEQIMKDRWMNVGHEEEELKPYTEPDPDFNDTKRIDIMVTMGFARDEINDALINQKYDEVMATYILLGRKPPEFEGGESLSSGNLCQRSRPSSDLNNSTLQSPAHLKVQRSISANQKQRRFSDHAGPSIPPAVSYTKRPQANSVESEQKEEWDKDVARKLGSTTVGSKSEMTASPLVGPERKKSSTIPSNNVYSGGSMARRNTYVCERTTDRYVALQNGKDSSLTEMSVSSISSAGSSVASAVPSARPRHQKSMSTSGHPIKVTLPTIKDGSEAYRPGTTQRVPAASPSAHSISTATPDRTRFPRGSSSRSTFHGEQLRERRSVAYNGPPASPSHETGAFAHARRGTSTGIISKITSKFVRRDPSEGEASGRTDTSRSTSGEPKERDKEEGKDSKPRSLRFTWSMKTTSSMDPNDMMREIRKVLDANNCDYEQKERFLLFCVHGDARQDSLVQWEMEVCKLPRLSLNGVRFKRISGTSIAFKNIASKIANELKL

Turning to `NC1CCN(c2ncnc3[nH]ccc23)CC1`, the inhibition was determined as 13.5% in [1], 14.5% in test [2] and 33% in test [3].
Turning to `NCCc1ccc(-c2ncnc3[nH]cnc23)cc1`, the values for the inhibition in test [4] and in test [5] were 39.5% and 45.5%, respectively.
With `COC(=O)c1cnc(Nc2cnc(C#N)cn2)cc1NCC1CCNCC1`, in test [6], the inhibition was 5%.
Turning to `c1nc(N2CCOCC2)c2nc[nH]c2n1`, the inhibition in [7] is 68%.
On to `c1cnc2[nH]ccc2c1`, for which the inhibition in test [8] was 42%; in [9], 49.5%.

One may read the inhibition as the relative decrease from the control value, in per cent.
